Experimental data: the NIST ThermoML archive (doi:10.1021/acs.jced.8b00601)
± gives the expanded uncertainty stated by the source.

Assay: activity coefficient (dimensionless); of the first substance listed, at infinite dilution; xn = mol fraction of the nth substance listed
Details: 101.33 kPa, Liquid, Chromatography, x1 = 0

Row | Structure (SMILES) | activity coefficient (313 K) | activity coefficient (323 K) | activity coefficient (333 K) | activity coefficient (343 K)
1 | CCCCCCCC [octane] + O=S(=O)([N-]S(=O)(=O)C(F)(F)F)C(F)(F)F.O=S(=O)([N-]S(=O)(=O)C(F)(F)F)C(F)(F)F.O=S(=O)([N-]S(=O)(=O)C(F)(F)F)C(F)(F)F.c1ccc2cc(-n3cc[n+](Cc4cc(C[n+]5ccn(-c6ccc7ccccc7c6)c5)cc(C[n+]5ccn(-c6ccc7ccccc7c6)c5)c4)c3)ccc2c1 | 28.4 ± 3.5 | 19.4 ± 2.5 | 14.1 ± 1.8 | 9.43 ± 1.4
2 | CCCC(C)=O [pentan-2-one] + O=S(=O)([N-]S(=O)(=O)C(F)(F)F)C(F)(F)F.O=S(=O)([N-]S(=O)(=O)C(F)(F)F)C(F)(F)F.O=S(=O)([N-]S(=O)(=O)C(F)(F)F)C(F)(F)F.c1ccc2cc(-n3cc[n+](Cc4cc(C[n+]5ccn(-c6ccc7ccccc7c6)c5)cc(C[n+]5ccn(-c6ccc7ccccc7c6)c5)c4)c3)ccc2c1 | 0.54 ± 0.062 | 0.441 ± 0.053 | 0.365 ± 0.045 | 0.341 ± 0.042
3 | CCCO [propan-1-ol] + O=S(=O)([N-]S(=O)(=O)C(F)(F)F)C(F)(F)F.O=S(=O)([N-]S(=O)(=O)C(F)(F)F)C(F)(F)F.O=S(=O)([N-]S(=O)(=O)C(F)(F)F)C(F)(F)F.c1ccc2cc(-n3cc[n+](Cc4cc(C[n+]5ccn(-c6ccc7ccccc7c6)c5)cc(C[n+]5ccn(-c6ccc7ccccc7c6)c5)c4)c3)ccc2c1 | 1.4 ± 0.16 | 1.1 ± 0.13 | 0.842 ± 0.094 | 0.73 ± 0.079
4 | CC(C)O [propan-2-ol] + O=S(=O)([N-]S(=O)(=O)C(F)(F)F)C(F)(F)F.O=S(=O)([N-]S(=O)(=O)C(F)(F)F)C(F)(F)F.O=S(=O)([N-]S(=O)(=O)C(F)(F)F)C(F)(F)F.c1ccc2cc(-n3cc[n+](Cc4cc(C[n+]5ccn(-c6ccc7ccccc7c6)c5)cc(C[n+]5ccn(-c6ccc7ccccc7c6)c5)c4)c3)ccc2c1 | 1.89 ± 0.24 | 1.24 ± 0.16 | 0.965 ± 0.11 | 0.693 ± 0.091
5 | c1ccncc1 [pyridine] + O=S(=O)([N-]S(=O)(=O)C(F)(F)F)C(F)(F)F.O=S(=O)([N-]S(=O)(=O)C(F)(F)F)C(F)(F)F.O=S(=O)([N-]S(=O)(=O)C(F)(F)F)C(F)(F)F.c1ccc2cc(-n3cc[n+](Cc4cc(C[n+]5ccn(-c6ccc7ccccc7c6)c5)cc(C[n+]5ccn(-c6ccc7ccccc7c6)c5)c4)c3)ccc2c1 | – | 0.164 ± 0.031 | 0.173 ± 0.032 | 0.198 ± 0.033
6 | ClC(Cl)(Cl)Cl [tetrachloromethane] + O=S(=O)([N-]S(=O)(=O)C(F)(F)F)C(F)(F)F.O=S(=O)([N-]S(=O)(=O)C(F)(F)F)C(F)(F)F.O=S(=O)([N-]S(=O)(=O)C(F)(F)F)C(F)(F)F.c1ccc2cc(-n3cc[n+](Cc4cc(C[n+]5ccn(-c6ccc7ccccc7c6)c5)cc(C[n+]5ccn(-c6ccc7ccccc7c6)c5)c4)c3)ccc2c1 | 4.72 ± 0.51 | 4.27 ± 0.47 | 3.29 ± 0.38 | 2.6 ± 0.31
7 | Cc1ccccc1 [toluene] + O=S(=O)([N-]S(=O)(=O)C(F)(F)F)C(F)(F)F.O=S(=O)([N-]S(=O)(=O)C(F)(F)F)C(F)(F)F.O=S(=O)([N-]S(=O)(=O)C(F)(F)F)C(F)(F)F.c1ccc2cc(-n3cc[n+](Cc4cc(C[n+]5ccn(-c6ccc7ccccc7c6)c5)cc(C[n+]5ccn(-c6ccc7ccccc7c6)c5)c4)c3)ccc2c1 | 3.82 ± 0.43 | 3.05 ± 0.35 | 2.42 ± 0.29 | 1.69 ± 0.23
